Experimental findings from patent publication US20140134140A1, “MESENCHYMAL STEM CELL COMPOSITIONS FOR THE TREATMENT OF MICROBIAL INFECTIONS” (Case Western Reserve University, priority 2012, published 2014) are described below.

The target in test [1] is T1, CFTR (Mus musculus, UniProt P26361).
T1 construct: BMC9 cells have 0.36±0.14% Cftr expression; endogenous in cells; host or cells: BMC9 immortal mouse MSC clone
Put plainly: LL-37 secretion by BMC9 cells with CFTR inhibition. The class given is cell-based. Particulars: 10 μg/ml, 48 hours; Mean±SEM, n=3. On the procedure:
(§1) To determine if CF MSCs express CFTR to validate the I-172 studies, we took advantage of an immortal mouse derived MSC clone BMC9, especially since we have a highly reproducible mouse Cftr gene expression assay in our CF animal CORE center. These cells are abundant and have s a MSC phenotype when grown at 37° C. […] The sensitivity and specificity of our Cftr expression assay is 40±2 Ct. If we had used a lower expressing tissue, the % of Cftr levels would be higher. BMC9 cells cultured with I-172 (10 μg/ml, for 48 hours) secreted 37±13% (Mean±SEM, n=3) less LL-37 than BMC9 cells not cultured with I-172 (P≦0.05). […] Our future studies are aimed at studying the differences between and Cftr deficient MSCs and control MSCs.

Test [2] has as its target T2, CFTR (Homo sapiens, UniProt P13569).
T2 construct: endogenous in cells; host or cells: human mesenchymal stem cells (hMSCs) from bone marrow of healthy volunteers
The test can be described thus: LL-37 secretion by cultured hMSCs with or without CFTR inhibition. The class given is cell-based. As to the method:
FIG. 11 illustrates that hMSCs and BMM cells secrete LL-37. hMSCs utilized in the animal models were cultured in vitro with and without the addition of 0.5 ug/ml LPS (n=5 preparations) with or without inhibition of CFTR with I-172 (10 ug/ml for 48 hours) and incubated for 24 hours. […] We used the student t-test for these analyses.
as §1

Molecules are shown by their SMILES.

T2 sequence (P13569 whole entry): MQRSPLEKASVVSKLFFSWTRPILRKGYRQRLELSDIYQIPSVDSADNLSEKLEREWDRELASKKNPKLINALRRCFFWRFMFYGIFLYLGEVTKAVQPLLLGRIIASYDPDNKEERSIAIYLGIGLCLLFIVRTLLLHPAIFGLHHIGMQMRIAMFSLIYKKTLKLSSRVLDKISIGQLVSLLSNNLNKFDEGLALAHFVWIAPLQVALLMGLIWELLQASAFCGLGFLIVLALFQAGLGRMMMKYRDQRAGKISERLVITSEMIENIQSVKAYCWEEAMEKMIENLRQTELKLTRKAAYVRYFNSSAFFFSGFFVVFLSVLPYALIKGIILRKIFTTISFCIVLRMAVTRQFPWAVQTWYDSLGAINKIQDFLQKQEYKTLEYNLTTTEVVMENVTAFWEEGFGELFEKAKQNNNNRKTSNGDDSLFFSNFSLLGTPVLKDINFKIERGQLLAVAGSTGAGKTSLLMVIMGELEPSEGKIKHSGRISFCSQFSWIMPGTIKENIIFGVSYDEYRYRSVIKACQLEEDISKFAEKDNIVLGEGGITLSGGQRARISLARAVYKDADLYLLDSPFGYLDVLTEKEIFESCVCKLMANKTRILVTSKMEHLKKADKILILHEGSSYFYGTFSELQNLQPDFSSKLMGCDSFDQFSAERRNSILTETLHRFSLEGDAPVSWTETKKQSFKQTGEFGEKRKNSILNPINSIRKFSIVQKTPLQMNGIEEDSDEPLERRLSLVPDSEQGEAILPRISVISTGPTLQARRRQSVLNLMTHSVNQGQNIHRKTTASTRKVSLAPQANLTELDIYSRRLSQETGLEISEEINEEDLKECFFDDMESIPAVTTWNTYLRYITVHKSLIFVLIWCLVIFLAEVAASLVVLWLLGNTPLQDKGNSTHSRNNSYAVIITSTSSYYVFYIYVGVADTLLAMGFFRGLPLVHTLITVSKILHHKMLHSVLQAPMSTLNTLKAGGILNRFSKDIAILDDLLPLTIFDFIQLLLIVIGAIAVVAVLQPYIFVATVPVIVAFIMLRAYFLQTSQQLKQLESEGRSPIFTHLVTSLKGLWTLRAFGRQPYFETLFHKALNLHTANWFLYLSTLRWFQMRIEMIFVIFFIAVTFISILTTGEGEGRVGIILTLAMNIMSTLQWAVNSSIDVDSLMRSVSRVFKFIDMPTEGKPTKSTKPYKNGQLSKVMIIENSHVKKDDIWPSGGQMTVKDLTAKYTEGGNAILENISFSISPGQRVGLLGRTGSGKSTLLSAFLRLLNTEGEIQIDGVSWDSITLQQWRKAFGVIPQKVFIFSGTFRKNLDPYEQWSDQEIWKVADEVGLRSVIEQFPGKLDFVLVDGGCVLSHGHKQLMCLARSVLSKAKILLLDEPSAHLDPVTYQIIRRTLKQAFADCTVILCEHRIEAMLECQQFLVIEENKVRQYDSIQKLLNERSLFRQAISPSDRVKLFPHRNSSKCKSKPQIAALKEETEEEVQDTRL
T1 sequence (P26361 whole entry): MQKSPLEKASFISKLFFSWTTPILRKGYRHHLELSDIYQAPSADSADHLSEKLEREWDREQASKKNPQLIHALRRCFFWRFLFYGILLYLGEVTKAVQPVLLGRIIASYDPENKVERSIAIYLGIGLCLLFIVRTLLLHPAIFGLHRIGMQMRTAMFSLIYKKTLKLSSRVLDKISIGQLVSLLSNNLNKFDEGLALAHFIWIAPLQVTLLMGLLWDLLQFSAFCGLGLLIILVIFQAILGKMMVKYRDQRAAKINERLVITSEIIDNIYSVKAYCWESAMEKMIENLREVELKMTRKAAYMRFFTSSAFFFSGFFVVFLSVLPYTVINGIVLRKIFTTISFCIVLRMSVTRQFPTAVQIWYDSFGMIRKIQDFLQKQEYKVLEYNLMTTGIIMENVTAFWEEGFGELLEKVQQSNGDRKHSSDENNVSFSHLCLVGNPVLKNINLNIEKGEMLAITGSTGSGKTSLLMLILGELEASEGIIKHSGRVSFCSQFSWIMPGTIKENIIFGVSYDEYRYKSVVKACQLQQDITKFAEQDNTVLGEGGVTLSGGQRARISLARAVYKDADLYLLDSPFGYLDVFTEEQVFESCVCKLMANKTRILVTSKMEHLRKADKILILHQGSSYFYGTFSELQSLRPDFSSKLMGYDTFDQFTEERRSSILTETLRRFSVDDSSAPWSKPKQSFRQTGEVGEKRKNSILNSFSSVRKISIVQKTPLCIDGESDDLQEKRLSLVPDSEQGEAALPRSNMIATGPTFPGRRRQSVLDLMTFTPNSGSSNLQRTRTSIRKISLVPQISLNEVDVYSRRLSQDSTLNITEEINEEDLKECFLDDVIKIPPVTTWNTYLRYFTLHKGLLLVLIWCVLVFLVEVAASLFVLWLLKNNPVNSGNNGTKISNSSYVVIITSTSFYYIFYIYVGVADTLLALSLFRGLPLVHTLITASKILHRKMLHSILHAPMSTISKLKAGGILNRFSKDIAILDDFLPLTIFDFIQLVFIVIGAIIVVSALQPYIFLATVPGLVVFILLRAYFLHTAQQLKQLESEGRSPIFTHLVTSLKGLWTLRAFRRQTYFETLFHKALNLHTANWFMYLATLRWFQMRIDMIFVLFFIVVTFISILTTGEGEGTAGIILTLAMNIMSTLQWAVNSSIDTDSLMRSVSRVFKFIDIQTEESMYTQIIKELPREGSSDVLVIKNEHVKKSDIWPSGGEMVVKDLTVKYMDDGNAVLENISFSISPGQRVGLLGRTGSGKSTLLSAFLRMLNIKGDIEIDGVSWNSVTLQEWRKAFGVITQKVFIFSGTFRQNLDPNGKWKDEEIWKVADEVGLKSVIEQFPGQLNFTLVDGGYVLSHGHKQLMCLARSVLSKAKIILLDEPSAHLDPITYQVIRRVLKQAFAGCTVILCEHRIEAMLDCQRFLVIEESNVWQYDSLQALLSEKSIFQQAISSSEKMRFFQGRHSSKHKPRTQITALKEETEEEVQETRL

Regarding `O=C(O)c1ccc(/C=C2\SC(=S)N(c3cccc(C(F)(F)F)c3)C2=O)cc1` [I-172], the “less LL-37 secreted than BMC9 cells not cultured with I-172” value at CFTR [1] came to 37±13%. In addition, the “amount of LL-37 after LPS stimulation” value on CFTR [2] (10 ug/ml for 48 hours then LPS, relative to LPS control) is reported as “even further suppressed”. Also, on CFTR [2] (10 ug/ml for 48 hours, relative to un-stimulated control), the “ability of hMSCs to secrete LL-37” value is given as “significantly reduced”.
